The subject of assay [1] is aggregates of β-pleated sheets. The assay is described as follows: Thioflavin-S immunohistochemistry of total brain tissue of treated mice. The class given is in vivo. The following applies: mice treated during 28 days. The method, then:
C57B1 were exposed subcutaneously to Aftin-5 using osmotic minipumps ([…]; Saint-Germain-Nuelles, France). Aftin-5 was dissolved in DMSO:propylene glycol:ethanol (45:45:10). Mice were treated with 1, 3 or 30 mg/Kg for 28 days. Filled pumps were left in saline overnight at 37° C. for priming. Mice were anesthetized with isoflurane (3-4% v/v, 1.5 mL/min) in an induction chamber and maintained under anesthesia through a mask. Mice were shaved on their back, disinfected and an incision made between the scapulae for pump implantation and finally closed with clips. 1% lidocaine gel was applied over the incision for local analgesia. Animals recovered from anesthesia in heated pads and immediately returned to the cages.
Immunohistochemistry assay was conducted with the total brain tissue, from mice treated with Aftin-5 during 28 days, in the presence of Thioflavin-S dye, which binds aggregates of β-pleated sheets.

The subject of the next assay is CREB, BDNF, PSD95. Description: mRNA of CREB, BDNF, PSD95 in brains of chronically treated WT mice. The settings on record: brains from WT mice treated chronically. In kind it is in vivo. The method, then:
The impact of Aftin-5 on gene expression of different biomarkers was determined by measuring mRNA levels of selected BDNF, CREB, PS95, INS Receptor/IGF-1 receptor, IL-1β, IL-6 in OHSC treated chronically with Aftin-5 or in a total brain from mice exposed to Aftin-5 at either 8 or 30 mg/Kg. Total RNA was extracted with TRIzol@ reagent and purified on RNeasy® minikit columns (Qiagen, Courtaboeuf, France). Briefly, cells were lysed with 0.5 mL of TRIzol@ reagent by pipetting. After addition of 100 μL of chloroform, mixtures were centrifuged at 10000 g for 15 min at 4° C., supernatants mixed with 600 μL of 70% ethanol and loaded onto RNeasy® columns. Total RNA was washed and eluted with RNase-free water according to manufacturer's protocol and stored at −80° C. RNA concentration was measured spectrophotometrically at 260 nm in a NanoDrop 2000c (Thermo Scientific, Villebon-sur-Yvette, France) (sample A260 nm/A280 nm ratios over 1.8 indicated reduced genomic DNA contamination). cDNAs were synthesized from 0.5 μg of total RNA with RT^2 First Strand kit (Qiagen, Courtaboeuf, France) according to the manufacturer's protocol and stored at −80° C. […] Threshold cycles (Ct) of target gene and cyclophilin A (Ppia−control housekeeping gene) were recorded and gene expression was calculated as 2^−ΔΔCt(ΔΔCt=ΔCttreated−ΔCtcontrol, ΔCt=Cttarget−CtPpia). […]

The test system of assay [2] is GFAP and Iba-1 (microglial/astrocytes phenotype). Description: GFAP and Iba-1 mRNA in OHSC (RT-qPCR). The class given is cell-based, mice. The settings on record: 50 μM, 10 days. The method, then: (§1) FIG. 9. Plots illustrating the effect of Aftin-5 on relative mRNA expression levels of GFAP (left panel) and Iba-1 (right panel) in organotypic hippocampal slice cultures (OHSC). OHSC culture media […] were replaced by incubation medium containing Aftin-5 (50 μM; A50) or vehicle (0.1% DMSO; Veh). 10 days later, total mRNA in lysate was isolated and purified, cDNAs were then synthesized from […] of total mRNA. cDNA were amplified by quantitative RT-PCR and the relative expression of specific genes was normalized to the housekeeping gene HPRT1 (2^−ΔCt). Mann-Whitney tests were performed and show no significant differences between Aftin-5 and control conditions. Data expressed as means+/−SEM from q=3 independent experiments with n=4-6 inserts/condition and 10 slices/insert. […]
(§2) The impact of Aftin-5 on gene expression of different biomarkers was determined by measuring mRNA levels of selected BDNF, CREB, PS95, INS Receptor/IGF-1 receptor, IL-1β, IL-6 in OHSC treated chronically with Aftin-5 or in a total brain from mice exposed to Aftin-5 at either 8 or 30 mg/Kg. […] Threshold cycles (Ct) of target gene and cyclophilin A (Ppia−control housekeeping gene) were recorded and gene expression was calculated as 2^−ΔΔCt(ΔΔCt=ΔCttreated−ΔCtcontrol, ΔCt=Cttarget−CtPpia). […]

Assay [3] relates to extracellular Aβ (Aβ1-38, Aβ1-40, Aβ1-42). The assay is described as follows: Extracellular Aβ production in organotypic hippocampal slice cultures (MSD sandwich immunoassay). In kind it is cell-based, mice. The method, then: Organotypic hippocampal slice cultures (OHSC) were prepared from newborn (P0-P3) C57B16 or for transgenic 3×Tg-AD mice and were cultured according the interface method (Gogolla et al., 2006). OHSC were kept for 7 days in vitro (div) at 37° C. in a humidified atmosphere (5% CO2) before treatment. Medium was changed every other day.
For acute exposure, neurons were exposed to various concentration of Aftin-5 for 18 hours for acute exposure. […]
All Aβ peptides assays in the samples were performed using V-PLEX Aβ Peptide Panel 1 (4G8) Kit (MSD Technologies_K15199E-1). All plates were read on the SECTOR Imager 2 400 (MSD Technologies). The Aβ peptides assay is based on the principle of the sandwich immunoassay. All assays have followed strictly the protocol kit and all reagents were from Meso Scale Discovery. Briefly, a 96-well plate having 4 spots pre-coated with the corresponding antibodies is provided by MSD Technology (4-spot MULTI-SPOT plates). Before adding the samples, a first saturation step is required. Once the plate is satured and washed, 25 μL of sample (or calibrators) per well are loaded, then 25 μL of the Detection Antibody solution (MSD SULFO-TAG). The plate is incubated for 2 hours. At the end of the incubation, the plate is washed and then a chemical solution (Read buffer 2×) is added allowing electrochemiluminescence. After a short incubation (5 min) at room temperature, the plate is read on the SECTOR Imager 2400. The instrument measures the intensity of the light electrochemiluminescence.

A further assay concerns IL-10. Description: IL-10 mRNA in OHSC (RT-qPCR). The class given is cell-based, mice. The settings on record: 50 μM, 10 days. The method, then:
as §1, with “FIG. 10.” for “FIG. 9.”, “of interleukin-1-beta (IL-1β; (A)), interleukin-6 (IL-6; (B)), TNF-alpha (TNFα; (C))” for “of GFAP (left panel)”, “and interleukin-10 (IL-10; (D))” for “and Iba-1 (right panel)”, “mRNA. cDNAs” for “mRNA. cDNA”, “and ***p<0.001 indicates” for “and show no”
as §2

[4] abbreviates: chronic treatment of OHSC (10 days).

Regarding `CC[C@H](CO)Nc1nc(N(C)c2ccccc2)c2ncn(C(C)C)c2n1` [Aftin-5], the “aggregates of β-pleated sheets (Thioflavin-S binding)” value in assay [1] is “absence”. For the same compound, in the assay on CREB, BDNF, PSD95, the “mRNA for CREB, BDNF as well as for PSD95 in brain” value was “high mRNA”. In addition, the “microglial/astrocytes phenotype (GFAP, Iba-1 mRNA)” value in assay [2] is on record as “does not affect”. Moreover, in assay [3] (OHSC, Aftin-5 50 μM with BMS (10 μM), 10 days), the “modulation of Aβ1-42/Aβ1-40 ratio induced by Aftin-5 in presence of γ-secretase inhibitor BMS” value is on record as “no changes”. For the same compound, in assay [3] (setting [4]), the Aβ1-38 entry is reported as “decrease”, the Aβ1-40 entry was “remained unchanged” and the “concentration ratio Aβ1-42/Aβ1-40” value is “slight but significant increase”. In addition, the “production of Aβ1-42” value in assay [3] (chronic treatment of OHSC (10 days), P<0.0001) is given as “increase”. In the assay with IL-10, the “IL-10 mRNA synthesis” value is recorded as “no changes”.

These data come from patent US11472807B2, “Purine derivatives for use as medicament and for use in treating neurodegenerative or neuro-inflammatory disorders” (COMMISSARIAT À L'ENERGIE ATOMIQUE ET AUX ENERGIES …, priority 2017, dated 2022).
